Tests used:
[1] = system: E. coli laboratory strain JM109; assay: Inhibition of biofilm formation, crystal violet, 96 well plates; assay type: cell-based; details: Escherichia coli, JM 109, compared to the controls, read-out: inhibited biofilm formation of the JM109 strain
Method: Biofilm inhibition experiments were conducted using an assay adapted from the reported protocol described in Pratt and Kolter, 1998, Molecular Microbiology, 30: 285-293; Li et al., 2001, J. Bacteriol., 183: 897-908. E. coli clinical strain UT189 was grown in LB in 96 well plates at room temperature for one or two days without shaking. E. coli laboratory strain JM109 was grown in LB plus 0.2% glucose in 96 well plates at room temperature for one day without shaking. To quantify the biofilm mass, the suspension culture was poured out and the biofilm was washed three times with water. The biofilm was stained with 0.1% crystal violet for 20 minutes. The plates were then washed three times with water. OD reading at 540 nm was measured to quantify the biofilm mass at the bottom of the wells. Then 95% ethanol was added to dissolve the dye at the bottom and on the wall and the OD reading at 540 nm was measured to quantify the total biofilm mass. To study the overall effect of the compounds (3.6 mg/mL in 100% ethanol as stock solution), it was added with the inoculation and a time course of biofilm mass was measured. Appropriate amounts of 100% ethanol were added to each sample to eliminate the effect of solvent. Each condition had 3-4 replicates on each plate and was performed over multiple days.

[2] = system: P. aeruginosa strain PAO1; assay: Rotating disk reactor (RDR) biofilm test with and without tobramycin, culturable bacteria; assay type: cell-based, Pseudomonas aeruginosa; details: test compound 100 μg/ml 24 h, average of three days
Method: Biofilm formation of P. aeruginosa was evaluated using a standardized biofilm method with a rotating disk reactor (RDR). This method provides a model resembling the formation of biofilms in cystic fibrosis patients. The rotating disk reactor consists of a one-liter glass beaker fitted with a drain spout. The bottom of the vessel contains a magnetically driven rotor with six 1.27 cm diameter coupons constructed from polystyrene. The rotor consists of a star-head magnetic stir bar upon which a disk was affixed to hold the coupons. The vessel with the stir bar was placed on a stir plate and rotated to provide fluid shear. A nutrient solution (AB Trace Medium with 0.3 mM glucose, see Table 3 below for composition) was added through a stopper in the top of the reactor at a flow rate of 5 ml/min. The reactor volume was approximately 180 ml and varied slightly between reactors depending on the placement of the drain spout and the rotational speed of the rotor. At a volume of 180 ml, the residence time of the reactors was 36 minutes. The reactors were operated at room temperature (c.a. 26° C.).
For each test, two RDRs were operated in parallel with one receiving test compound and the other serving as an untreated control. The RDRs were sterilized by autoclave, then filled with sterile medium and inoculated with P. aeruginosa strain PAO1. The reactors were then incubated at room temperature in batch mode (no medium flow) for a period of 24 hours, after which the flow was initiated for a further 24 hour incubation. Test compounds were dissolved in 10 ml ethanol to achieve a concentration of 1.8 mg/ml. After the 48 hours of biofilm development described above, the 10 ml of ethanol containing the test compounds were added to the reactor to achieve a final concentration of approximately 50, 100, or 200 μg/ml. Control reactors received 10 ml of ethanol. The reactors were then incubated for an additional 24 hours in batch (no flow) mode. After this incubation period, the six coupons were removed from each reactor and placed in 12-well polystyrene tissue culture plates with wells containing either 2 ml of a 100 μg/ml tobramycin solution or 2 ml of phosphate-buffered saline (PBS). These plates were incubated at room temperature for two hours. The coupons were then rinsed by three transfers to plates containing 2 ml of fresh PBS. For each two RDR reactors run in parallel, four sets of three coupons were obtained: one set with no test compound treatment and no tobramycin treatment, one set with no test compound treatment and tobramycin treatment, one set treated with a test compound treatment and no tobramycin treatment, and one set treated with a test compound treatment and tobramycin. After rinsing, one coupon of each set of three was stained with a LIVE/DEAD® BacLight™ Bacterial Viability Kit (Molecular Probes, Eugene Oreg.) and imaged using epifluorescent microscopy. The remaining two coupons were placed in 10 ml of PBS and sonicated for five minutes to remove and disperse biofilm cells. The resulting bacterial suspensions were then serially diluted in PBS and plated on tryptic soy agar plates for enumeration of culturable bacteria. The plates were incubated for 24 hours at 37° C. before colony forming units (CFU) were determined.
The results are averages from experiments performed on three separate days for each test compound. The values reported are as loglo CFU.

[3] = Bladder concentrations in rats (pharmacokinetic study); details: rat, in vivo; rats, 50 mg/kg oral single bolus in 50% Labrasol, at 24 hours; read-out: Concentrations in the bladder
Method: Pharmacokinetic studies of asiatic acid and madecassic acid in rats were performed separately. Asiatic acid and madecassic acid were evaluated at 50 mg/kg (oral). Two animals were assigned to the each group. Prior to dosing, a baseline blood sample was taken from each animal. At time zero for asiatic acid and madecassic acid, a single bolus dose in 50% Labrasol (Gattefosse) was given to each animal. Bladders were analyzed at 24 hours. Concentrations of both asiatic acid and madecassic acid in the bladder were approximately 30 μg/g at 24 hours.

P. aeruginosa [4] = assay: Biofilm inhibition, comparison of scaffold modifications; assay type: cell-based; details: effect of modifying corosolic acid at C-19, or at C-3 and C-20
S. mutans = details: U.S. Pat. No. 4,606,911; cited from earlier work
S. salivaris = details: U.S. Pat. No. 4,606,911; cited from earlier work
S. aureus = details: U.S. Pat. No. 4,606,911; cited from earlier work
E. coli = details: U.S. Pat. No. 4,606,911; cited from earlier work
P. aeruginosa [5] = details: U.S. Pat. No. 4,606,911; cited from earlier work
[6] = system: E. coli clinical strain UT189 against bladder epithelial cells; assay: Binding to and invasion of bladder epithelial cells by E. coli; assay type: cell-based; details: 40 μg/ml, 60 minutes; separate experiments (n=4 to 7)
Method: The effect of test compounds on bacterial invasion of E. coli clinical strain UT189 was studied as described in Elsinghorst, et al. 1994, Methods Enzymol, 236:405-420; and Martinez et al., 2000, EMBO J., 19:2803-2812. Epithelial bladder cells were grown in plates. Asiatic acid, corosolic acid, or ursolic acid were added at concentrations of 10 μg/ml, 20 μg/ml, or 40 μg/ml to bacteria and epithelial cells for approximately 5, 15, 30, or 60 minutes with approximately 10^7 CFU of E. coli. Binding was assessed at time zero and invasion was assessed at approximately 5, 15, 30, or 60 minutes from completing the mixture of compound, bacteria, and epithelial cells. As a control ethanol was added to cells to a final concentration of 0.1%. The effect of bacterial viability and bacterial adherence during the infection period was evaluated according to the methods described in Martinez et al., 2000, EMBO J., 19:2803-2812.

E. coli UT189[pCOMGFP] = assay: Biofilm pods (IBCs) in bladders of infected mice, intravesical compound, confocal microscopy; assay type: in vivo, Escherichia coli; details: experiment 1: C3H/HeN mice, 40 μg/ml intravesical with 30 min pre-incubation, 10^8 CFU, five hours; vs controls
Method: The procedures in this example has been previously reported by Justice, S. et al. Differentiation and development pathways of uropathogenic Escherichia coli in urinary tract pathogenesis. PNAS, 2004, 101(5), p. 1333-1338. Briefly, E. coli UT189[pCOMGFP] was prepared after retrieval from frozen stocks by inoculating appropriately in LB medium statically for approximately 20 hours. Cells were harvested and suspended in 1 ml of PBS. Cells were diluted appropriately to achieve approximately a 10^8 CFU or 10^7 CFU input into C3H/HeN mice (2 mice per group).
Mice were deprived of water for approximately two hours. In experiment 1, all mice were anesthetized with 0.15 cc ketamine cocktail. In experiment 2, all mice were anesthetized with isofluorane. In experiment 1, urine was dispelled from the bladders and approximately 40 μg/ml of test compound or an appropriate amount of ethanol as control was introduced into the bladders via catheterization of the urethra using a tubing coated tuberculin syringe. 30 minutes was allowed to elapse. In experiment 2, bladders were not pre-incubated with test compounds. Bladders were then expelled and an inoculum of 10^8 CFU (Experiment 1) or 10^7 CFU (Experiment 2) of E. coli containing 40 μg/ml of test compound or equivalent amount of ethanol as controls were introduced into the bladders as indicated above.
In experiment 1 five hours elapsed and in experiment 2 six hours elapsed, and then mice were anesthetized and sacrificed appropriately. The bladders were removed, bisected, stretched, and fixed in 3% paraformaldehyde for 1 hour at room temperature. Bladders were then permeabilized in 0.01% Triton/PBS for 10 minutes and counter stained with TOPRO3 (Molecular Probes) for 10 minutes for visualization by confocal microscopy. Bladders were mounted on Prolong antifade (Molecular Probes).

SMILES | biofilm inhibition against P. aeruginosa relative to corosolic acid (P. aeruginosa [4]) | growth inhibition of S. mutans (S. mutans) | growth inhibition of S. salivaris (S. salivaris) | growth inhibition of S. aureus (S. aureus) | growth inhibition of E. coli (E. coli) | growth inhibition of P. aeruginosa (P. aeruginosa [5]) | also measured
C[C@H]1[C@H](C)CC[C@]2(C(=O)O)CC[C@]3(C)C(=CC[C@@H]4[C@@]5(C)C[C@@H](O)[C@H](O)[C@@](C)(CO)[C@@H]5[C@H](O)C[C@]43C)[C@H]12 [Madecassic acid] | – | – | – | – | – | – | inhibition at 5 µg/mL ([1]; 5 ug/ml): ~60%; inhibition at 10 µg/mL ([1]; 10 ug/ml): ~75%; CFU, Test Compound ([2]; no tobramycin): 7.5 loglo CFU; CFU, Tobramycin and Test Compound ([2]; then tobramycin 100 μg/ml 2 h): 5.5 loglo CFU; concentration at 24 h [3]: ~30000 ng/g
C[C@@H]1[C@H]2C3=CCC4[C@@]5(C)CC[C@H](OC(=O)/C=C\c6ccc(O)cc6)C(C)(C)C5CC[C@@]4(C)[C@]3(C)CC[C@@]2(C(=O)O)CC[C@]1(C)O (stereo partly drawn) [3-[4-Hydroxycinnamoyl (cis-)], 20-hydroxy-ursolic acid] | increases biofilm inhibition | – | – | – | – | – | –
C[C@@H]1CC[C@]2(C(=O)O)CC[C@]3(C)C(=CC[C@@H]4[C@@]5(C)C[C@@H](O)[C@H](O)C(C)(C)[C@@H]5CC[C@]43C)[C@@H]2[C@]1(C)O [Tormentic acid] | slightly reduces the biofilm inhibition | – | – | – | – | – | –
CC1(C)CC[C@]2(C(=O)O)CC[C@]3(C)C(=CC[C@@H]4[C@@]5(C)CC[C@H](O)C(C)(C)[C@@H]5CC[C@]43C)[C@@H]2C1 [Oleanolic acid] | – | incomplete inhibition | incomplete inhibition | failed to inhibit | failed to inhibit | failed to inhibit | –
C[C@@H]1CC[C@]2(C(=O)O)CC[C@]3(C)C(=CCC4[C@@]5(C)CC[C@H](O)C(C)(C)C5CC[C@]43C)C2[C@H]1C (stereo partly shown) [Ursolic acid] | – | completely inhibited | completely inhibited | failed to inhibit | failed to inhibit | failed to inhibit | reduced invasion of E. coli into bladder epithelial cells [6]: 76%; reduction in biofilm pods or IBCs in the bladders of mice (E. coli UT189[pCOMGFP]): 70%

— patent US20070014739A1, “Compositions and methods for controlling biofilms and bacterial infections” (priority 2005, published 2007)
